These results are taken from patent US4226775A, “Substituted thio-substituted benzyl-propionyl-L-prolines” (American Cyanamid Company, priority 1979, dated 1980).

SMILES strings stand for the structures. pIC50: −log10 of the molar value.

The target of this test is T1, angiotensin converting enzyme (ACE) (Oryctolagus cuniculus, UniProt P12822).
T1 construct: The ACE was extracted from rabbit lung acetane powder (Pel-Freez, Biol. Inc.); tissue Pel-Freez, Biol. Inc; host or cells: rabbit lung acetone powder, crude extract (40,000 g supernatant)
T1 sequence (P12822 34-1310): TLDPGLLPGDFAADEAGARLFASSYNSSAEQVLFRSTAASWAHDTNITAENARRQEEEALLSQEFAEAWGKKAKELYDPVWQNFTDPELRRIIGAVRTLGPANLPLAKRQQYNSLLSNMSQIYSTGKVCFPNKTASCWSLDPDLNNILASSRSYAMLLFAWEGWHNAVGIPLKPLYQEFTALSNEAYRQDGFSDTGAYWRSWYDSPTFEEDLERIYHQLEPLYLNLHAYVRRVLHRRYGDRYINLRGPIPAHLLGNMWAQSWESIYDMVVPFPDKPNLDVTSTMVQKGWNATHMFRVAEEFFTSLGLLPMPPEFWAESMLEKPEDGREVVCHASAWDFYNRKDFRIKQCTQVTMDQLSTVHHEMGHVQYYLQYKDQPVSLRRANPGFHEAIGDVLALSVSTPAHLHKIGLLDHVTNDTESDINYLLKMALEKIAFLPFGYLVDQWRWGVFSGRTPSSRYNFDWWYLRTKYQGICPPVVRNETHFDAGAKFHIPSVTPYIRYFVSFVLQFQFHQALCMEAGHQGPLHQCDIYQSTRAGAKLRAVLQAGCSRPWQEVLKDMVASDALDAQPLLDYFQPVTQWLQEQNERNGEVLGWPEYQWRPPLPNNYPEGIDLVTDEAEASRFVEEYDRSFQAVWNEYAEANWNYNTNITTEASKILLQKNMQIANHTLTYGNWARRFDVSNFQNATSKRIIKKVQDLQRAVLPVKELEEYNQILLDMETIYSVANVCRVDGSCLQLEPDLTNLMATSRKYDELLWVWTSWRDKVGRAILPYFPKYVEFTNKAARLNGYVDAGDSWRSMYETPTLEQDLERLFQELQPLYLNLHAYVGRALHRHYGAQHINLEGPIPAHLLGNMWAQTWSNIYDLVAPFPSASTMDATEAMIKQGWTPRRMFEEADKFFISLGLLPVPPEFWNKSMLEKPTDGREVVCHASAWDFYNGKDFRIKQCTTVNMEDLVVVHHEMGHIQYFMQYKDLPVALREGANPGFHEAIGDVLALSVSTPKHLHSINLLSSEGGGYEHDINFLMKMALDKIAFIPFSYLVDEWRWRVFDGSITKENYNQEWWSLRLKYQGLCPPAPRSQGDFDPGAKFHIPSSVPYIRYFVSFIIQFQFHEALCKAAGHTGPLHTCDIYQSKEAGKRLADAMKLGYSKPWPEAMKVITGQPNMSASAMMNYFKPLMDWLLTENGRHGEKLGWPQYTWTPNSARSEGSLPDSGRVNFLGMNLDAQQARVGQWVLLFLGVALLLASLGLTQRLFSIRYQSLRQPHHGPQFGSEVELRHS
The experiment in a line: Spectrophotometric assay for angiotensin converting enzyme inhibitors. Format: biochemical. Particulars: crude ACE extract from rabbit lung; substrate benzoyl-glycyl-histidyl-leucine; 30 minutes at 37° C.; absorbance at 228 nm. The procedure:
The activity of the novel compounds of this invention as hypotensive agents was established in two systems which measure their ability as angiotensin converting enzyme inhibitors; namely, a spectrophotometric assay of the compounds in vitro and by the measurement of the blood pressure lowering effect of the compounds in the aorta-coarcted renal hypertensive rats.
The in vitro activity for inhibition of the angiotensin converting enzyme (ACE) was measured by the method of Cushman, D. W. and Cheung, H. S., Biochem. Pharmacol. 20, 1637-1648 (1971), using benzoyl-glycyl-histidyl-leucine as the substrate. The reaction mixture consisted of 50 ml. of potassium phosphate (500 mM., […]), […]. of sodium chloride (2500 mM.), 25 ml. of substrate (50 mM), 30 to 50 ml. of the crude extract of ACE, 10 ml. of test compound (2.5 mM) or vehicle and a suitable amount of distilled water to give a total volume of 250 ml. This reaction mixture was incubated for 30 minutes at 37° C. and the reaction was then terminated by the addition of 250 ml. of 1 N hydrochloric acid. The hippuric acid was then extracted with 1.5 ml. of ethyl acetate by vortex mixing for 15 seconds. After centrifugation, 1 ml. of the ethyl acetate layer was pipetted into a new tube and evaporated to dryness. The extracted hippuric acid was then dissolved in 1 ml. of water and the amount of this acid was then measured by its absorbance at 228 nm. The ACE was extracted from rabbit lung acetane powder (Pel-Freez, Biol. Inc.) by blending 5 g. of the powder in 50 ml. of phosphate buffer (50 mM, pH 8.3) and then centrifuging at 40,000 g for 30 minutes. The supernatant was then kept at 5° C. and used as the enzyme source. The activity of the ACE inhibitor was calculated as the percent inhibition of ACE activity compared to the control value of that particular assay. A full dose-response inhibitory curve is then performed to determine the IC50 value which may be defined as the molar concentration of a compound that will inhibit the ACE activity by 50%.
`CC(=O)SC(CC(=O)c1ccccc1)C(=O)N1CCC[C@H]1C(=O)O` (stereo partly drawn) [1-(2-Acetylthio-3-benzoylpropionyl)-L-proline]: the negative-log IC50 (pIC50) (commonly the IC50 on a negative log10 scale, so that one unit is a factor of ten) is 5.37.
With `CC(=O)SC(C(=O)c1ccccc1)C(C)C(=O)N1CCC[C@H]1C(=O)O` (stereo partly drawn) [1-(3-Acetylthio-3-benzoyl-2-methylpropionyl)-L-proline] the figure was 6.83; with `CC(=O)SC(CC(=O)N1CCC[C@H]1C(=O)O)C(=O)c1ccccc1` (stereo partly drawn) [1-(3-Acetylthio-3-benzoylpropionyl)-L-proline], 6.34; with `O=C(SC(CC(=O)N1CCC[C@H]1C(=O)O)C(=O)c1ccccc1)c1ccccc1` (stereo partly drawn) [1-(3-Benzoylthio-3-benzoylpropionyl)-L-proline], 6.29.
Turning to `O=C(SC(CC(=O)N1CCC[C@H]1C(=O)O)C(=O)c1ccc(Br)cc1)c1ccccc1` (stereo partly drawn) [1-[3-(4-Bromobenzoyl)-3-benzoylthiopropionyl]-L-proline], the negative logarithm of the IC50 (pIC50) is 6.94. Compared with the last molecule, the pIC50 is 0.65 log units higher.
With `O=C(c1ccc(Br)cc1)C(S)CC(=O)N1CCC[C@H]1C(=O)O` (stereo partly drawn) [1-[3-(4-Bromobenzoyl)-3-thiopropionyl]-L-proline] the figure was 6.45; with `O=C(c1cnc(SC(CC(=O)N2CCC[C@H]2C(=O)O)C(=O)c2ccc(Cl)cc2)nc1)c1cccs1` (stereo partly drawn) [1-[3-(4-Chlorobenzoyl)-3-[5-(2-thenoyl)-2-pyrimidinylthio]propionyl]-L-proline], 5.29; with `O=C(c1ccccc1)c1cnc(SC(CC(=O)N2CCC[C@H]2C(=O)O)C(=O)c2ccc(Cl)cc2)nc1` (stereo partly drawn) [1-[3-(5-Benzoyl-2-pyrimidinylthio)-3-(4-chlorobenzoyl)propionyl]-L-proline], 5.56.
`CC(=O)SC(CC(=O)N1CCC[C@H]1C(=O)O)C(=O)c1ccc2ccccc2c1` (stereo partly drawn) [1-[3-Acetylthio-3-(2-naphthoyl)propionyl]-L-proline]: the pIC50 is 6.89.
With `COc1ccc(C(=O)C(CC(=O)N2CCC[C@H]2C(=O)O)SC(C)=O)cc1F` (stereo partly drawn) [1-[3-Acetylthio-3-(3-fluoro-4-methoxybenzoyl)propionyl]-L-proline] the figure was 6.22; with `CC(=O)SC(C(=O)c1cccc(F)c1)C(C)C(=O)N1CCC[C@H]1C(=O)O` (stereo partly drawn) [1-[3-Acetylthio-3-(3-fluorobenzoyl)-2-methylpropionyl]-L-proline], 7.21.
As for `CC(=O)SC(CC(=O)N1CCC[C@H]1C(=O)O)C(=O)c1cccc(F)c1` (stereo partly drawn) [1-[3-Acetylthio-3-(3-fluorobenzoyl)propionyl]-L-proline], the figure is 7.50.
With `CC(=O)SC(CC(=O)N1CCC[C@H]1C(=O)O)C(=O)c1cccc(C(F)(F)F)c1` (stereo partly drawn) [1-[3-Acetylthio-3-(3-trifluoromethylbenzoyl)propionyl]-L-proline] the figure was 5.97.
For the molecule `CC(=O)SC(CC(=O)N1CCC[C@H]1C(=O)O)C(=O)c1ccc(-c2ccccc2)cc1` (stereo partly drawn) [1-[3-Acetylthio-3-(4-biphenylylcarbonyl)propionyl]-L-proline], the pIC50 was 7.07.
As for `CC(=O)SC(CC(=O)N1CCC[C@H]1C(=O)O)C(=O)c1ccc(Br)cc1` (stereo partly drawn) [1-[3-Acetylthio-3-(4-bromobenzoyl)propionyl]-L-proline], the figure is 6.88.
As for `CC(=O)SC(C(=O)c1ccc(Cl)cc1)C(C)C(=O)N1CCC[C@H]1C(=O)O` (stereo partly drawn) [1-[3-Acetylthio-3-(4-chlorobenzoyl)-2-methylpropionyl]-L-proline], the pIC50 was 6.47.
With `CC(=O)SC(CC(=O)N1CCC[C@H]1C(=O)O)C(=O)c1ccc(Cl)cc1` (stereo partly drawn) [1-[3-Acetylthio-3-(4-chlorobenzoyl)propionyl]-L-proline] the figure was 7.08.
`CC(=O)SC(CC(=O)N1CCC[C@H]1C(=O)O)C(=O)c1ccc(F)cc1` (stereo partly drawn) [1-[3-Acetylthio-3-(4-fluorobenzoyl)propionyl]-L-proline] showed a pIC50 of 6.33.
Regarding `CC(=O)SC(CC(=O)N1CCC[C@H]1C(=O)O)C(=O)c1ccc(C(C)(C)C)cc1` (stereo partly drawn) [1-[3-Acetylthio-3-(4-tert-butylbenzoyl)propionyl]-L-proline], the pIC50 is 6.74.
As for `O=C(O)CSC(CC(=O)c1ccccc1)C(=O)N1CCC[C@H]1C(=O)O` (stereo partly drawn) [1-[3-Benzoyl-2-(carboxymethylthio)propionyl]-L-proline], the figure is 4.50; as for `O=C(SC(CC(=O)N1CCC[C@H]1C(=O)O)C(=O)c1cccc(F)c1)c1ccccc1` (stereo partly drawn) [1-[3-Benzoylthio-3-(3-fluorobenzoyl)propionyl]-L-proline], 5.75.
As for `O=C(SC(CC(=O)N1CCC[C@H]1C(=O)O)C(=O)c1ccc(F)cc1)c1ccccc1` (stereo partly drawn) [1-[3-Benzoylthio-3-(4-fluorobenzoyl)propionyl]-L-proline], the figure is 6.45.
`CC(=O)SC(CC(=O)N1CCC[C@H]1C(=O)O)C(=O)c1ccc2c(c1)CCC2` (stereo partly drawn) [1-[3-acetylthio-3-(5-indanylcarbonyl)propionyl]-L-proline]: the pIC50 is 6.66. This pIC50 lies 0.21 log units higher than the previous one.
As for `CC(=O)SC(CC(=O)N1CCC[C@H]1C(=O)O)C(=O)c1ccc(Oc2ccc(Cl)cc2)cc1` (stereo partly drawn) [1-{3-Acetylthio-3-[4-(4-chlorophenoxy)benzoyl]-propionyl}-L-proline], the figure is 6.45.
With `CC(=O)S[C@@H](C(=O)c1cccc(F)c1)[C@H](C)C(=O)N1CCC[C@H]1C(=O)O` [[R-(R*,R*)]-1-[3-acetylthio-3-(3-fluorobenzoyl)-2-methylpropionyl]-L-proline] the figure was 4.80; with `CC(=O)S[C@H](C(=O)c1cccc(F)c1)[C@H](C)C(=O)N1CCC[C@H]1C(=O)O` [[R-(R*,S*)]-1-[3-acetylthio-3-(3-fluorobenzoyl)-2-methylpropionyl]-L-proline], 3.55.
Consider `CC(=O)S[C@H](C(=O)c1ccccc1)[C@@H](C)C(=O)N1CCC[C@H]1C(=O)O` [[S-(R*,R*)]-1-(3-acetylthio-3-benzoyl-2-methylpropionyl)-L-proline], for which the pIC50 was 7.11.
With `CC(=O)S[C@H](C(=O)c1cccc(F)c1)[C@@H](C)C(=O)N1CCC[C@H]1C(=O)O` [[S-(R*,R*)]-1-[3-acetylthio-3-(3-fluorobenzoyl)-2-methylpropionyl]-L-proline] the figure was 6.63.
For `CC(=O)S[C@H](C(=O)c1ccc(Br)cc1)[C@@H](C)C(=O)N1CCC[C@H]1C(=O)O` [[S-(R*,R*)]-1-[3-acetylthio-3-(4-bromobenzoyl)-2-methylpropionyl]-L-proline], the pIC50 was 6.88.
In the case of `CC(=O)S[C@@H](C(=O)c1ccccc1)[C@@H](C)C(=O)N1CCC[C@H]1C(=O)O` [[S-(R*,S*)]-1-(3-Acetylthio-3-benzoyl-2-methylpropionyl)-L-proline], the negative logarithm of the IC50 (pIC50) was 7.29.
With `CC(=O)S[C@@H](C(=O)c1cccc(F)c1)[C@@H](C)C(=O)N1CCC[C@H]1C(=O)O` [[S-(R*,S*)]-1-[3-acetylthio-3-(3-fluorobenzoyl)-2-methylpropionyl]-L-proline] the figure was 7.43.
